Tests used:
Assay in all cases: NCI-60 SRB screening (one-dose and five-dose)
Format in all cases: cell-based, human
RPMI-8226 = conditions: RPMI-8226, 10 μM, 48 h
Method: (§1) The compounds were added at a single concentration and the cell cultures were incubated for 48 h. The end point determinations were made with a protein binding dye, sulforhodamine B (SRB). […] The percentage of growth was evaluated spectrophotometrically versus controls not treated with test agents after 48-h exposure and using SRB protein assay to estimate cell viability or growth. […] Furthermore, mean graph midpoints (MG_MID) were calculated for each of the parameters, giving an average activity parameter over all cell lines for the tested compound. For the MG_MID calculation, insensitive cell lines were included with the highest concentration tested.

ACHN = conditions: 10 μM, 48 h
Method: as §1

EKVX = conditions: 10 μM, 48 h
Method: as §1

MDA-MB-435 = conditions: MDA-MB-435, 10 μM, 48 h
Method: as §1

MOLT-4 = conditions: MOLT-4, 10 μM, 48 h
Method: as §1

DU-145 = conditions: DU-145, 10 μM, 48 h
Method: as §1

OVCAR-4 = conditions: OVCAR-4, 10 μM, 48 h
Method: as §1

SF-295 = conditions: SF-295, 10 μM, 48 h
Method: as §1

HCT-15 = conditions: HCT-15, 10 μM, 48 h
Method: as §1

SF-539 = conditions: SF-539, 10 μM, 48 h
Method: as §1

SK-MEL-5 = conditions: SK-MEL-5, 10 μM, 48 h
Method: as §1

SNB-19 = conditions: SNB-19, 10 μM, 48 h
Method: as §1

SW-620 = conditions: SW-620, 10 μM, 48 h
Method: as §1

K-562 = conditions: K-562, 10 μM, 48 h
Method: as §1

SF-268 = conditions: SF-268, 10 μM, 48 h
Method: as §1

A498 = conditions: A498, 10 μM, 48 h
Method: as §1

SN12C = conditions: 10 μM, 48 h
Method: as §1

HCT-116 = conditions: HCT-116, 10 μM, 48 h
Method: as §1

MCF7 = conditions: MCF7, 10 μM, 48 h
Method: as §1

MALME-3M = conditions: 10 μM, 48 h
Method: as §1

UACC-62 = conditions: UACC-62, 10 μM, 48 h
Method: as §1

MDA-MB-468 = conditions: MDA-MB-468, 10 μM, 48 h
Method: as §1

RXF 393 = conditions: RXF 393, 10 μM, 48 h
Method: as §1

SR = conditions: 10 μM, 48 h
Method: as §1

OVCAR-8 = conditions: OVCAR-8, 10 μM, 48 h
Method: as §1

HOP-62 = conditions: HOP-62, 10 μM, 48 h
Method: as §1

A549/ATCC = conditions: 10 μM, 48 h
Method: as §1

PC-3 = conditions: PC-3, 10 μM, 48 h
Method: as §1

T-47D = conditions: T-47D, 10 μM, 48 h
Method: as §1

U251 = conditions: U251, 10 μM, 48 h
Method: as §1

UACC-257 = conditions: UACC-257, 10 μM, 48 h
Method: as §1

HCC-2998 = conditions: HCC-2998, 10 μM, 48 h
Method: as §1

COLO 205 = conditions: COLO 205, 10 μM, 48 h
Method: as §1

SK-MEL-28 = conditions: SK-MEL-28, 10 μM, 48 h
Method: as §1

HT29 = conditions: HT29, 10 μM, 48 h
Method: as §1

HOP-92 = conditions: HOP-92, 10 μM, 48 h
Method: as §1

SK-OV-3 = conditions: SK-OV-3, 10 μM, 48 h
Method: as §1

IGROV1 = conditions: IGROV1, 10 μM, 48 h
Method: as §1

786-0 = conditions: 786-0, 10 μM, 48 h
Method: as §1

HL-60(TB) = conditions: 10 μM, 48 h
Method: as §1

## CC(=O)[C@H]1C[C@]23CC[C@]4(C)[C@H](CC[C@@H]5[C@@]6(C)CCC(=O)C(C)(C)[C@@H]6CC[C@]54C)[C@H]2[C@H](C)[C@@]1(C)OC3 [Compound 2, 3-oxo-21β-acetyl-20β,28-epoxy-18α,19βH-ursane]
RPMI-8226
  Growth Percent: 102.14%
ACHN
  Growth Percent: 99.80%
EKVX
  Growth Percent: 71.73%
MDA-MB-435
  Growth Percent: 100.67%
MOLT-4
  Growth Percent: 100.88%
DU-145
  Growth Percent: 98.96%
OVCAR-4
  Growth Percent: 85.13%
SF-295
  Growth Percent: 99.35%
HCT-15
  Growth Percent: 111.38%
SF-539
  Growth Percent: 95.15%
SK-MEL-5
  Growth Percent: 100.12%
SNB-19
  Growth Percent: 98.03%
SW-620
  Growth Percent: 95.81%
K-562
  Growth Percent: 103.93%
SF-268
  Growth Percent: 90.95%
A498
  Growth Percent: 67.96%
SN12C
  Growth Percent: 87.69%
HCT-116
  Growth Percent: 100.51%
MCF7
  Growth Percent: 90.80%
MALME-3M
  Growth Percent: 109.60%
UACC-62
  Growth Percent: 85.81%
MDA-MB-468
  Growth Percent: 108.53%
RXF 393
  Growth Percent: 76.40%
SR
  Growth Percent: 92.32%
OVCAR-8
  Growth Percent: 104.68%
HOP-62
  Growth Percent: 80.72%
A549/ATCC
  Growth Percent: 93.03%
PC-3
  Growth Percent: 87.23%
T-47D
  Growth Percent: 106.29%
U251
  Growth Percent: 107.36%
UACC-257
  Growth Percent: 103.91%
HCC-2998
  Growth Percent: 109.84%
COLO 205
  Growth Percent: 111.81%
SK-MEL-28
  Growth Percent: 109.33%
HT29
  Growth Percent: 108.96%
HOP-92
  Growth Percent: 95.88%
SK-OV-3
  Growth Percent: 118.18%
IGROV1
  Growth Percent: 88.93%
786-0
  Growth Percent: 89.64%
HL-60(TB)
  Growth Percent: 133.26%
